Results reported in the supplement of paper PMC5908809.

Assays:
[1] = system: normal NK cells expanded with K562-aAPC; experiment: percent inhibition of viability; higher = more inhibition; settings: 72 h, IL-2 2.5 ng/mL
Procedure: (§1)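 Drug sensitivity and resistance testing on K562-aAPC-expanded normal NK cells: 5 concentrations (10-fold steps over a 10,000-fold range), 72 h at 37 °C, viability by CellTiter-Glo normalised to DMSO and benzethonium chloride controls; DSS from the fitted curve.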

DERL-7 (IL-2 2.5 ng/mL) [2] = experiment: as above; settings: 72 h
IMC-1 (IL-2 20 ng/mL) [3] = experiment: as above; settings: 72 h
KAI3 (IL-2 2.5 ng/mL) [4] = experiment: as above; settings: 72 h
KHYG-1 (IL-2 2.5 ng/mL) [5] = experiment: as above; settings: 72 h
NK-92 (IL-2 2.5 ng/mL) [6] = experiment: as above; settings: 72 h
NK-YS (IL-2 2.5 ng/mL) [7] = experiment: as above; settings: 72 h
NKL (IL-2 2.5 ng/mL) [8] = experiment: as above; settings: 72 h
SNK-6 (IL-2 2.5 ng/mL) [9] = experiment: as above; settings: 72 h
YT (IL-2 2.5 ng/mL) [10] = experiment: as above; settings: 72 h
[11] = system: normal primary NK cells, pool 1 (3 donors) (IL-2 2.5 ng/mL); experiment: as above; settings: 72 h
[12] = system: normal primary NK cells, pool 1 (3 donors), resting (IL-2 0 ng/mL); experiment: as above; settings: 72 h
[13] = system: normal primary NK cells, pool 2 (3 donors) (IL-2 2.5 ng/mL); experiment: as above; settings: 72 h
[14] = system: normal primary NK cells, pool 3 (3 donors) (IL-2 2.5 ng/mL); experiment: as above; settings: 72 h
[15] = system: normal NK cells expanded with K562-aAPC; experiment: drug sensitivity score (DSS) (DSS units); higher = more sensitive; extreme values may be limits of the assay; settings: 72 h; IL-2 2.5 ng/mL
Procedure: as §1

DERL-7 (IL-2 2.5 ng/mL) [16] = experiment: as above; settings: 72 h
IMC-1 (IL-2 20 ng/mL) [17] = experiment: as above; settings: 72 h
KAI3 (IL-2 2.5 ng/mL) [18] = experiment: as above; settings: 72 h
KHYG-1 (IL-2 2.5 ng/mL) [19] = experiment: as above; settings: 72 h
NK-92 (IL-2 2.5 ng/mL) [20] = experiment: as above; settings: 72 h
NK-YS (IL-2 2.5 ng/mL) [21] = experiment: as above; settings: 72 h
NKL (IL-2 2.5 ng/mL) [22] = experiment: as above; settings: 72 h
SNK-6 (IL-2 2.5 ng/mL) [23] = experiment: as above; settings: 72 h
YT (IL-2 2.5 ng/mL) [24] = experiment: as above; settings: 72 h
[25] = system: normal primary NK cells, pool 1 (3 donors) (IL-2 2.5 ng/mL); experiment: as above; settings: 72 h
[26] = system: normal primary NK cells, pool 1 (3 donors), resting (IL-2 0 ng/mL); experiment: as above; settings: 72 h
[27] = system: normal primary NK cells, pool 2 (3 donors) (IL-2 2.5 ng/mL); experiment: as above; settings: 72 h
[28] = system: normal primary NK cells, pool 3 (3 donors) (IL-2 2.5 ng/mL); experiment: as above; settings: 72 h

CCOC(=O)CCNc1cc(N2CCc3ccccc3CC2)nc(-c2ccccn2)n1 [GSK-J4] (max concentration tested 100000 nM)
percent inhibition of viability [%]
Settings	10 nM	100 nM	1000 nM	10000 nM	100000 nM
DERL-7 (IL-2 2.5 ng/mL) [2]	-0.14	7.18	14.4	93.4	99.4
IMC-1 (IL-2 20 ng/mL) [3]	-5.61	-2.96	39.7	97	100
KAI3 (IL-2 2.5 ng/mL) [4]	-4.58	1.93	2.78	94.3	98.9
KHYG-1 (IL-2 2.5 ng/mL) [5]	-1.03	-1.4	20	101	99.2
NK-92 (IL-2 2.5 ng/mL) [6]	-9.95	-0.92	60.9	104	98.1
NK-YS (IL-2 2.5 ng/mL) [7]	-1.22	-3.86	-1.41	98.6	99.6
NKL (IL-2 2.5 ng/mL) [8]	-0.55	-7.46	-8.29	104	98.2
SNK-6 (IL-2 2.5 ng/mL) [9]	-0.34	7.09	6.11	94.8	99.7
YT (IL-2 2.5 ng/mL) [10]	-1.98	-3.85	4.52	104	99.3
[1]	-1.25	-3.45	-1.63	93.7	99.5
[11]	-2.65	-4.87	13.6	97.9	99.8
[12]	-7.04	-16	34.7	96.2	99
[13]	-5.62	-2.09	5.39	92.4	98.7
[14]	-2.08	-5.17	19.9	94	99.5

Settings	drug sensitivity score
DERL-7 (IL-2 2.5 ng/mL) [16]	18.9
IMC-1 (IL-2 20 ng/mL) [17]	22.9
KAI3 (IL-2 2.5 ng/mL) [18]	17.5
KHYG-1 (IL-2 2.5 ng/mL) [19]	21.2
NK-92 (IL-2 2.5 ng/mL) [20]	25.2
NK-YS (IL-2 2.5 ng/mL) [21]	17.6
NKL (IL-2 2.5 ng/mL) [22]	17.6
SNK-6 (IL-2 2.5 ng/mL) [23]	18.1
YT (IL-2 2.5 ng/mL) [24]	18.9
[15]	16.9
[25]	20.2
[26]	22.6
[27]	17.5
[28]	19.8

C[C@@H]1C=C2C(=O)O[C@@H]3CC[C@H](C1)[C@]23O [Galiellalactone] (max concentration tested 25000 nM)
percent inhibition of viability [%]
Settings	2.5 nM	25 nM	250 nM	2500 nM	25000 nM
DERL-7 (IL-2 2.5 ng/mL) [2]	-3.32	-2.23	6.78	39.3	101
IMC-1 (IL-2 20 ng/mL) [3]	-4.12	-5.59	-4.92	-11.8	42.7
KAI3 (IL-2 2.5 ng/mL) [4]	0.86	-9.38	4.52	34.1	99.1
KHYG-1 (IL-2 2.5 ng/mL) [5]	-7.95	-9.83	-6.41	10.7	80.1
NK-92 (IL-2 2.5 ng/mL) [6]	-18	-14.4	-12.5	13.8	106
NK-YS (IL-2 2.5 ng/mL) [7]	0.84	-3.46	3.95	18.4	64.7
NKL (IL-2 2.5 ng/mL) [8]	-8.21	-5.52	-6.69	-5.94	49.3
SNK-6 (IL-2 2.5 ng/mL) [9]	-13.8	-22	-28.1	20.7	86
YT (IL-2 2.5 ng/mL) [10]	-7.44	-15.7	-6.7	-3.78	81
[1]	-7.73	-4.65	-5.56	8.69	91.9
[11]	-8.48	6.95	7.01	15.2	93.7
[12]	-12.7	5.72	9.42	27.4	89.3
[13]	-9.13	7.06	4.86	10.7	93.2
[14]	-11.4	1.14	-3.83	2.67	87.7

Settings	drug sensitivity score
DERL-7 (IL-2 2.5 ng/mL) [16]	10.3
IMC-1 (IL-2 20 ng/mL) [17]	1.6
KAI3 (IL-2 2.5 ng/mL) [18]	9.99
KHYG-1 (IL-2 2.5 ng/mL) [19]	6.22
NK-92 (IL-2 2.5 ng/mL) [20]	7.95
NK-YS (IL-2 2.5 ng/mL) [21]	6.25
NKL (IL-2 2.5 ng/mL) [22]	2.18
SNK-6 (IL-2 2.5 ng/mL) [23]	7.97
YT (IL-2 2.5 ng/mL) [24]	4.18
[15]	6.5
[25]	7.72
[26]	8.44
[27]	6.94
[28]	5.23

Cc1cc(Nc2cc(CN3CCOCC3)c3nc(C)c(Cc4ccc(Cl)cc4F)n3n2)n[nH]1 [Gandotinib] (max concentration tested 10000 nM)
percent inhibition of viability [%]
Settings	1 nM	10 nM	100 nM	1000 nM	10000 nM
DERL-7 (IL-2 2.5 ng/mL) [2]	2.64	12.5	31.3	96.2	100
IMC-1 (IL-2 20 ng/mL) [3]	-4.23	-6.96	-22.2	36.1	99.6
KAI3 (IL-2 2.5 ng/mL) [4]	8.43	12.9	45.1	92.9	82.2
KHYG-1 (IL-2 2.5 ng/mL) [5]	0.26	6.43	45.7	106	95.9
NK-92 (IL-2 2.5 ng/mL) [6]	4.87	11.2	20.5	86.5	96.2
NK-YS (IL-2 2.5 ng/mL) [7]	1.47	2.64	22.9	77.5	93.6
NKL (IL-2 2.5 ng/mL) [8]	-9.53	-6.03	52.5	77.8	71.9
SNK-6 (IL-2 2.5 ng/mL) [9]	6.62	7.51	9.98	95	87.1
YT (IL-2 2.5 ng/mL) [10]	1.95	-0.29	5.49	77.5	94.8
[1]	-0.65	3.87	25.1	89.6	70.5
[11]	-11.8	-7.74	18.1	58.3	79.4
[12]	-20.1	-7.1	2.98	-45.4	20.2
[13]	-11.3	-5.04	11.2	50.9	52.6
[14]	-10.9	-0.67	2.59	43.9	65.9

Settings	drug sensitivity score
DERL-7 (IL-2 2.5 ng/mL) [16]	21
IMC-1 (IL-2 20 ng/mL) [17]	10.4
KAI3 (IL-2 2.5 ng/mL) [18]	22
KHYG-1 (IL-2 2.5 ng/mL) [19]	23.9
NK-92 (IL-2 2.5 ng/mL) [20]	18.3
NK-YS (IL-2 2.5 ng/mL) [21]	17.1
NKL (IL-2 2.5 ng/mL) [22]	20.4
SNK-6 (IL-2 2.5 ng/mL) [23]	18.8
YT (IL-2 2.5 ng/mL) [24]	15
[15]	20
[25]	13
[26]	0.18
[27]	11.1
[28]	8.97
